Data: PMC9649612, “Molecular docking and biochemical validation of (-)-syringaresinol-4-O-β-D-apiofuranosyl-(1→2)-β-D-glucopyranoside binding to an allosteric site in monoamine transporters” (Frontiers in Pharmacology, 2022)

Experiments:
[1] = target: T1, hSERT E493N (S2 site mutant) (Homo sapiens, UniProt P31645, E493N); assay: APP+ transport in HeLa cells expressing hSERT mutant E493N; assay type: cell-based; settings: 2 μM APP+ 5 min, intact HeLa cells, read-out: SAG IC50 for transport
T1 construct: expressed in transfected cells; host or cells: HeLa (ATCC CCL-2), transient, pcDNA3.1
Description: (§1) The mutants used for this study were constructed in the WT background carried by the expression plasmids for hSERT, hDAT, or hNET under the control of CMV promotor in pcDNA3.1 vector, respectively. All mutants were generated using the Mut Express II Fast Mutagenesis Kit (Vazyme) and confirmed by full-length DNA sequencing.
(§2) HeLa cells were cultured in Dulbecco’s Modified Eagle’s Medium supplemented with 10% fetal bovine serum, 100 units/ml penicillin, and 100 μg/ml streptomycin at 37°C in a humidified 5% CO2 incubator. Cells were plated in a 6-well culture plate and grown overnight. Cells at ∼70% confluence were transfected with hSERT, hDAT, or hNET cDNA in pcDNA3.1 by lipofectamine 2000. […] After grown for additional 12–16 h, the cells were assayed for APP^+ or ASP^+ fluorescence image acquisition.
(§3) The cells expressing WT or mutants of hSERT, hDAT, or hNET were wet mounted on polylysine coated glass slides in 12-well plates and applied for the indicated treatments. […] The extent of APP^+ accumulated in the cells was determined by confocal imaging analysis. ASP^+ binding to SERT in the cell membrane was measured with digitonin-permeabilized cells ([Li M. et al., 2022a]). […] After removing excess ASP^+ by rapid washing three times, ASP^+ binding was determined by confocal imaging analysis.
(§4) Images were analyzed using Zen Blue software. […]

[2] = target: T2, hDAT D476N (S2 site mutant) (Homo sapiens, UniProt Q01959, D476N); assay: APP+ transport in HeLa cells expressing hDAT mutant D476N; assay type: cell-based; settings: intact HeLa cells, read-out: SAG IC50
T2 construct: expressed in transfected cells; host or cells: HeLa
Description: as §1, §2, §3, §4

[3] = target: T3, hSERT P561G (S2 site mutant) (Homo sapiens, UniProt P31645, P561G); assay: ASP+ binding in digitonin-permeabilized HeLa cells expressing hSERT P561G; settings: 10 μM ASP+, read-out: SAG IC50 for binding
T3 construct: expressed in transfected cells; host or cells: HeLa (ATCC CCL-2), transient, pcDNA3.1
Description: as §1, §2, §3, §4

[4] = target: T4, hSERT T583A (S2 site mutant) (Homo sapiens, UniProt P31645, T583A); assay: APP+ transport in HeLa cells expressing hSERT mutant T583A; assay type: cell-based; settings: 2 μM APP+ 5 min, intact HeLa cells, read-out: SAG IC50 for transport
T4 construct: expressed in transfected cells; host or cells: HeLa (ATCC CCL-2), transient, pcDNA3.1
Description: as §1, §2, §3, §4

[5] = target: T5, hSERT S559A (S2 site mutant) (Homo sapiens, UniProt P31645, S559A); assay: APP+ transport in HeLa cells expressing hSERT mutant S559A; assay type: cell-based; settings: 2 μM APP+ 5 min, intact HeLa cells, read-out: SAG IC50 for transport
T5 construct: expressed in transfected cells; host or cells: HeLa (ATCC CCL-2), transient, pcDNA3.1
Description: as §1, §2, §3, §4

[6] = target: T6, hSERT E494Q (S2 site mutant) (Homo sapiens, UniProt P31645, E494Q); assay: APP+ transport in HeLa cells expressing hSERT mutant E494Q; assay type: cell-based; settings: 2 μM APP+ 5 min, intact HeLa cells, read-out: SAG IC50 for transport
T6 construct: expressed in transfected cells; host or cells: HeLa (ATCC CCL-2), transient, pcDNA3.1
Description: as §1, §2, §3, §4

[7] = target: T7, hDAT F76V (S1 site mutant) (Homo sapiens, UniProt Q01959, F76V); assay: APP+ transport in HeLa cells expressing hDAT mutant F76V; assay type: cell-based
T7 construct: expressed in transfected cells; host or cells: HeLa
Description: as §1, §2, §3, §4

[8] = target: T8, hDAT R544G (S2 site mutant) (Homo sapiens, UniProt Q01959, R544G); assay: APP+ transport in HeLa cells expressing hDAT mutant R544G; assay type: cell-based
T8 construct: expressed in transfected cells; host or cells: HeLa
Description: as §1, §2, §3, §4

[9] = target: T9, hSERT F556A (S2 site mutant) (Homo sapiens, UniProt P31645, F556A); assay: APP+ transport in HeLa cells expressing hSERT mutant F556A; assay type: cell-based; settings: 2 μM APP+ 5 min, intact HeLa cells, read-out: SAG IC50 for transport
T9 construct: expressed in transfected cells; host or cells: HeLa (ATCC CCL-2), transient, pcDNA3.1
Description: as §1, §2, §3, §4

[10] = target: T10, hSERT P560G (S2 site mutant) (Homo sapiens, UniProt P31645, P560G); assay: APP+ transport in HeLa cells expressing hSERT mutant P560G; assay type: cell-based; settings: 2 μM APP+ 5 min, intact HeLa cells, read-out: SAG IC50 for transport
T10 construct: expressed in transfected cells; host or cells: HeLa (ATCC CCL-2), transient, pcDNA3.1
Description: as §1, §2, §3, §4

[11] = target: T11, hSERT I327A (S2 site mutant) (Homo sapiens, UniProt P31645, I327A); assay: ASP+ binding in digitonin-permeabilized HeLa cells expressing hSERT I327A; settings: 10 μM ASP+, read-out: SAG IC50 for binding
T11 construct: expressed in transfected cells; host or cells: HeLa (ATCC CCL-2), transient, pcDNA3.1
Description: as §1, §2, §3, §4

T8 sequence (Q01959 whole entry R544G): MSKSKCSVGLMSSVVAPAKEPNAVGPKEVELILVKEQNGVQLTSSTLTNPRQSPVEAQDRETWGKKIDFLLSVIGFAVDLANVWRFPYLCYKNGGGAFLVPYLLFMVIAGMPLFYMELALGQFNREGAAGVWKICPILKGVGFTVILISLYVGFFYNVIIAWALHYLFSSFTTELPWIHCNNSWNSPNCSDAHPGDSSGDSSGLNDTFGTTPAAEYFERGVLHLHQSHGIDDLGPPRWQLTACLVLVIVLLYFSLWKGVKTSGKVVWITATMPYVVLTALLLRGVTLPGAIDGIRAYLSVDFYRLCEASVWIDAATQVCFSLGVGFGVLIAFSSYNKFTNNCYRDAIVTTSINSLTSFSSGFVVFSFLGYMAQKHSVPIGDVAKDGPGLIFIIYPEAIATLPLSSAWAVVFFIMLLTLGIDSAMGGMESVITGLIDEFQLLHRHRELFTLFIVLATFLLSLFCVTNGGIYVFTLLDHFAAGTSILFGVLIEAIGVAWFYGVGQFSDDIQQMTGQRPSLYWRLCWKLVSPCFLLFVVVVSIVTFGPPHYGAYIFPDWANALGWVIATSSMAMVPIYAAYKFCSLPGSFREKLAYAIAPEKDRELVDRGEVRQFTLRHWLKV
T7 sequence (Q01959 whole entry F76V): as the sequence (Q01959 whole entry R544G) above, with F76V, G544R counted along it
T2 sequence (Q01959 whole entry D476N): as the sequence (Q01959 whole entry R544G) above, with D476N, G544R counted along it

Substance: (-)-Syringaresinol-4-O-β-D-apiofuranosyl-(1→2)-β-D-glucopyranoside [SAG]
- IC50 [1]: 53.2 ± 6.6 µM
- IC50 [2]: 93.8 ± 3.9 µM
- IC50 [3]: > 1000 µM
- IC50 [4]: > 1000 µM
- IC50 [5]: 20.2 ± 1.9 µM
- IC50 [6]: 153 ± 2 µM
- IC50 ([7]; hDAT F76V (S1), intact HeLa cells, read-out: SAG IC50): 18.2 ± 0.8 µM
- Effect of mutation on SAG inhibition potency ([7]; hDAT S1 residue Phe76 replaced): little effect
- Increase in SAG IC50 compared with WT ([8]; hDAT R544G vs WT-hDAT): less than 10 fold
- IC50 ([8]; hDAT R544G, intact HeLa cells, read-out: SAG IC50): 150 ± 4 µM
- IC50 [9]: 41 ± 6.5 µM
- IC50 [10]: 243 ± 10 µM
- IC50 [11]: 48.3 ± 4.6 µM
